One test has as its system MM.1S cells. Briefly: Proliferation inhibition (IC50) in multiple myeloma cells, cell viability with WST/CCK-8 reagent.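 Also: MM.1S B-lymphoblast cells at 15,000 per well in 100 µL serum-containing RPMI1640, experiment run more than three times.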 The following applies: Homo sapiens, MM1.S, 72 h, read-out: IC50 (half inhibitory concentration). A general note: Tetrazolium assays rely on reduction of a dye to a coloured formazan, in cell work by metabolically active cells.
Procedure: Multiple myeloma cell line: MM.1S (B lymphoblast), purchased from ATCC (American Type Culture Collection). Culture medium was RPMI1640 supplemented with 10% FBS and 1% Penicillin-Streptomycin. The cells used were identified as correct cells by STR cells and negative for mycoplasma by routine inspections.
IC50 values of the compounds of the present disclosure were measured using Cell Titer Blue, Cell Titer GLO, or WST reagent from Promega Company. Assay details are as follows: Cells were seeded in 100 μL RPMI1640 complete medium containing serum at a density of 15,000 cells/well.
The experiment was repeated more than three times.
Regarding `O=C1CCC(N2Cc3cc(CCCCCCCCNC45CC6CC(CC(C6)C4)C5)ccc3C2=O)C(=O)N1` (centres unmarked) [SIAIS271187, 3-(5-(8-((adamantan-1-yl)amino)octyl)-1-oxoisoindolin-2-yl)piperidine-2,6-dione], the IC50 worked out at 17 nM.

For the compound `O=C1CCC(N2Cc3c(NCCCCCCCN4CCCCC4)cccc3C2=O)C(=O)N1` (centres unmarked) [SIAIS1220125, 3-(1-oxo-4-((7-(piperidin-1-yl)heptyl)amino)isoindolin-2-yl)piperidine-2,6-dione, reference compound], the IC50 was 697 nM.

On to `O=C1CCC(N2C(=O)c3cccc(NCCCCCCCN4CCCCC4)c3C2=O)C(=O)N1` (centres unmarked) [SIAIS1221047, 2-(2,6-dioxopiperidin-3-yl)-4-((7-(piperidin-1-yl)heptyl)amino)isoindoline-1,3-dione, reference compound], for which the IC50 turned out to be 0.78 nM.

Regarding `O=C1CCC(N2C(=O)c3ccc(NCCCCCCCNC45CC6CC(CC(C6)C4)C5)cc3C2=O)C(=O)N1` (centres unmarked) [SIAIS1221055, 5-((7-((adamantan-1-yl)amino)heptyl)amino)-2-(2,6-dioxopiperidin-3-yl)isoindoline-1,3-dione], the IC50 amounted to 1.43 nM.

With `O=C1CCC(N2C(=O)c3cccc(OCCCCCCCNC45CC6CC(CC(C6)C4)C5)c3C2=O)C(=O)N1` (centres unmarked) [SIAIS1221077, 4-((7-((adamantan-1-yl)amino)heptyl)oxy)-2-(2,6-dioxopiperidin-3-yl)isoindoline-1,3-dione], the IC50 turned out to be 5.53 nM.

With `O=C1CCC(N2C(=O)c3cccc(OCCCCCCCN4CCCCC4)c3C2=O)C(=O)N1` (centres unmarked) [SIAIS1221079, 2-(2,6-dioxopiperidin-3-yl)-4-((7-(piperidin-1-yl)heptyl)oxy)isoindoline-1,3-dione, reference compound], the IC50 came to 65.9 nM.

As for `O=C1CCC(N2Cc3c(NCCCCCCCNC45CC6CC(CC(C6)C4)C5)cccc3C2=O)C(=O)N1` (centres unmarked) [SIAIS1221091, 3-(4-((7-((adamantan-1-yl)amino)heptyl)amino)-1-oxoisoindolin-2-yl)piperidine-2,6-dione], the IC50 turned out to be 1.51 nM.

Take `O=C1CCC(N2Cc3c(C#CCCCCCCNC45CC6CC(CC(C6)C4)C5)cccc3C2=O)C(=O)N1` (centres unmarked) [SIAIS1221095, 3-(4-(8-((adamantan-1-yl)amino)oct-1-yn-1-yl)-1-oxoisoindolin-2-yl)piperidine-2,6-dione]: the IC50 is 2.21 nM.

`O=C1CCC(N2Cc3c(CCCCCCCCNC45CC6CC(CC(C6)C4)C5)cccc3C2=O)C(=O)N1` (centres unmarked) [SIAIS1221105, 3-(4-(8-((adamantan-1-yl)amino)octyl)-1-oxoisoindolin-2-yl)piperidine-2,6-dione]: the IC50 came out at 0.044 nM.

`O=C1CCC(N2Cc3c(CCCCCCCCN4CCCCC4)cccc3C2=O)C(=O)N1` (centres unmarked) [SIAIS1221107, 3-(1-oxo-4-(8-(piperidin-1-yl)octyl)isoindolin-2-yl)piperidine-2,6-dione, reference compound]: the IC50 is 3.93 nM.

With `O=C1CCC(N2Cc3c(OCCCCCCCN4CCCCC4)cccc3C2=O)C(=O)N1` (centres unmarked) [SIAIS1221109, 3-(1-oxo-4-((7-(piperidin-1-yl)heptyl)oxy)isoindolin-2-yl)piperidine-2,6-dione, reference compound], the IC50 was found to be 17.6 nM.

Staying with this test, now noted: Homo sapiens, MM1.S, 72 h, read-out: IC50 (half inhibitory concentration), MM.1S multiple myeloma cells, WST reagent, 72 h treatment.
On to `O=C1CCC(N2C(=O)c3cccc(NCCCCCCCNC45CC6CC(CC(C6)C4)C5)c3C2=O)C(=O)N1` (centres unmarked) [SIAIS1221053, 4-((7-((adamantan-1-yl)amino)heptyl)amino)-2-(2,6-dioxopiperidin-3-yl)isoindoline-1,3-dione], for which the IC50 came out at 0.16 ± 0.03 nM.

Regarding `O=C1CCC(N2Cc3c(OCCCCCCCNC45CC6CC(CC(C6)C4)C5)cccc3C2=O)C(=O)N1` (centres unmarked) [SIAIS1221111, 3-(4-((7-((adamantan-1-yl)amino)heptyl)oxy)-1-oxoisoindolin-2-yl)piperidine-2,6-dione], the IC50 is about 0.09 nM.

Still in this test, the particulars now being: read-out: IC50 (half inhibitory concentration); MM.1S multiple myeloma cells, WST reagent, 72 h treatment.
Turning to `O=C1CCC(N2Cc3c(OCCCCCCCNC45CC6CC(CC(C6)C4)C5)cccc3C2=O)C(=O)N1` (centres unmarked) [SIAIS1221111, 3-(4-((7-((adamantan-1-yl)amino)heptyl)oxy)-1-oxoisoindolin-2-yl)piperidine-2,6-dione], the IC50 was 0.089 nM.

For the origin of these results see US20230096517A1, “GLUTARIMIDE SKELETON-BASED COMPOUNDS AND APPLICATION THEREOF” (SHANGHAITECH UNIVERSITY, priority 2020, published 2023).
